{"source": "ChEMBL document CHEMBL5149996", "about": "“Structure-Based Optimization and Discovery of M3258, a Specific Inhibitor of the Immunoproteasome Subunit LMP7 (β5i)” (J Med Chem, 2021)", "key": {"[1]": {"assay": "Half life in iv dosed mouse", "assay_type": "ADME, organism-based", "details": "in vivo"}, "[2]": {"target": "T1, Proteasome subunit beta type-10 (Homo sapiens, UniProt P40306)", "T1 sequence (P40306 whole entry)": "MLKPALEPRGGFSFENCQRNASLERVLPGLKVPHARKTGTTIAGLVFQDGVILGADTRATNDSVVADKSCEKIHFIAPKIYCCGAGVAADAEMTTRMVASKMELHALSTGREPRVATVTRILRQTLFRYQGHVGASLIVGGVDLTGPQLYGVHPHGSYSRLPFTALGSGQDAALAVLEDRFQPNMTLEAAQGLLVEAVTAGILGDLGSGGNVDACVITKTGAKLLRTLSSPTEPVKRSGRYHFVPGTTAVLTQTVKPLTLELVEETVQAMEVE", "assay": "Inhibition of human 20S immunoproteasome beta-2i subunit using Ac-RLR-AMC as substrate preincubated for 2 hrs followed by substrate addition and measured after 1 hr by fluorescence intensity assay"}, "[3]": {"target": "5-hydroxytryptamine receptor 2A (Homo sapiens) (UniProt P28223)", "sequence (P28223 whole entry)": "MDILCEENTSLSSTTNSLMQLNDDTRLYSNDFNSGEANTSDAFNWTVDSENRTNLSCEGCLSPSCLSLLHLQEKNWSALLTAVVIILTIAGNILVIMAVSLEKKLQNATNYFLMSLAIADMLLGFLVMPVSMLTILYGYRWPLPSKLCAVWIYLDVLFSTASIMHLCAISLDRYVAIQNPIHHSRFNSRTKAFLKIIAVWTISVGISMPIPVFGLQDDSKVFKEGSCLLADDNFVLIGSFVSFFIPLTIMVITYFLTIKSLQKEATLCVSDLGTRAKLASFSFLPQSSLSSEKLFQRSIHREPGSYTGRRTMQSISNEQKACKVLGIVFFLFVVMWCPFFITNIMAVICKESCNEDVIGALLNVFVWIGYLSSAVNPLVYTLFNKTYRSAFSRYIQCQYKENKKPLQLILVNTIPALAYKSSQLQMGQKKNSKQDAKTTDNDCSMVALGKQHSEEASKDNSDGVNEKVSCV", "assay": "Displacement of [125I](+/-)DOI from human recombinant 5HT2A receptor at 10 uM incubated for 60 mins by radiometric scintillation counting analysis"}, "[4]": {"assay": "Clearance in iv dosed mouse", "assay_type": "ADME, organism-based", "details": "in vivo"}, "[5]": {"tested_on": "20S immunoproteasome beta-5i subunit", "assay": "Selectivity ratio of IC50 for cytotoxicity against human primary hepatocytes to IC50 for inhibition of 20S immunoproteasome beta-5i subunit in human PBMC", "assay_type": "toxicity", "details": "read-out: Ratio IC50"}, "[6]": {"assay": "Clearance in human hepatocytes measured per million of cells", "assay_type": "ADME, cell-based, Hepatocyte", "details": "read-out: CLH"}, "[7]": {"target": "T2, Proteasome Macropain subunit MB1 (Homo sapiens, UniProt P28074)", "T2 sequence (P28074 whole entry)": "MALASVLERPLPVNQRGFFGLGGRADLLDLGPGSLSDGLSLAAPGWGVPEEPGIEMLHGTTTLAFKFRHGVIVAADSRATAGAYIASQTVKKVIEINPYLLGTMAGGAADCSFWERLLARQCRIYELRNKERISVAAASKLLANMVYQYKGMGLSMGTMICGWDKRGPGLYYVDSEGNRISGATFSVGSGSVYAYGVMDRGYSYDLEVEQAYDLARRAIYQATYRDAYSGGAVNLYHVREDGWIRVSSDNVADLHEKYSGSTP", "assay": "Inhibition of 20S proteasome beta5 subunit in human A549 cells using Suc-LLVY-luciferin substrate preincubated for 2 hrs followed by substrate addition and measured after 30 mins by luminometric analysis", "assay_type": "cell-based"}, "[8]": {"assay": "Cytotoxicity against human primary hepatocytes assessed as depletion of ATP content incubated for 48 to 72 hrs by CellTiter-Glo luminescent assay", "assay_type": "toxicity, cell-based, Hepatocyte"}, "[9]": {"tested_on": "U-266", "assay": "Antitumor activity against human U266B1 cells xenografted in H2d Rag2 mouse assessed as reduction in tumor volume at 0.3 mg/kg, po administered once daily and measured for 21 days", "assay_type": "functional, organism-based", "details": "time 21.0 day"}, "[10]": {"tested_on": "U-266", "assay": "In vivo inhibition of LMP7 activity in tumor lysates of H2d Rag2 mouse xenografted with human U266B1 cells at 0.3 mg/kg, po administered once daily using (Ac-ANW)2R110 as substrate measured at 1 to 6 hrs post-last drug dosage by fluorescence intensity assay", "assay_type": "functional, organism-based", "details": "Neoplasm, time 1-6 hrs"}, "[11]": {"tested_on": "20S immunoproteasome beta-5i subunit", "assay": "Selectivity ratio of IC50 for cytotoxicity against Wistar Han rat hepatocytes to IC50 for inhibition of 20S immunoproteasome beta-5i subunit in human PBMC", "assay_type": "toxicity", "details": "read-out: Ratio IC50"}, "[12]": {"assay": "Cytotoxicity against Wistar Han rat hepatocytes assessed as depletion of ATP content incubated for 48 to 72 hrs by CellTiter-Glo luminescent assay", "assay_type": "toxicity, cell-based, Hepatocyte"}, "[13]": {"assay": "Intrinsic clearance in mouse liver microsomes measured per mg protein", "assay_type": "ADME, Microsome", "details": "read-out: CLH"}, "[14]": {"species_on_record": "Homo sapiens", "assay": "Selectivity ratio of IC50 for inhibition of human 20S proteasome beta5 subunit to IC50 for inhibition of human 20S immunoproteasome beta-5i subunit"}}, "note": "Calls of active or inactive are those of the source. No cut-off for these calls is given here."}
{"smiles": "O=C(N[C@@H](Cc1coc2ccccc12)B(O)O)[C@@H]1C[C@H]2CC[C@@H]1O2", "values": [{"measurement": "half-life", "setting": "[1]", "value": 1.71, "unit": "h"}, {"measurement": "IC50", "setting": "[2]", "value": "> 30", "unit": "µM"}, {"measurement": "inhibition", "setting": "[3]", "value": "Active"}, {"measurement": "clearance", "setting": "[4]", "value": 3.17, "unit": "mL/min/kg"}, {"measurement": "selectivity ratio", "setting": "[5]", "value": 10000}, {"measurement": "hepatocyte CLint", "setting": "[6]", "value": 6.2, "unit": "µL/min/1e6 cells"}, {"measurement": "IC50", "setting": "[7]", "value": 1.03, "unit": "µM"}, {"measurement": "IC50", "setting": "[8]", "value": 91, "unit": "µM"}, {"measurement": "Activity", "setting": "[9]", "value": "Active"}, {"measurement": "inhibition", "setting": "[10]", "value": "Active"}, {"measurement": "selectivity ratio", "setting": "[11]", "value": 10000}, {"measurement": "IC50", "setting": "[12]", "value": 64, "unit": "µM"}, {"measurement": "microsomal CLint", "setting": "[13]", "value": 14, "unit": "µL/min/mg"}, {"measurement": "Ratio IC50", "setting": "[14]", "value": 684}]}
